From ChEMBL document CHEMBL5370593, “Discovery and In Vitro Characterization of SPL028: Deuterated N,N-Dimethyltryptamine” (ACS Med Chem Lett, 2023)

Tests used:
[1] = Metabolic stability in human liver mitochondrial fraction assessed as mean half life measured per million cells incubated upto 60 mins by LC-MS/MS analysis; type: ADME, mitochondria, Mitochondria
[2] = molecular target: T1, Alpha-1A adrenergic receptor (Homo sapiens, UniProt P35348); test: Displacement of [3H] prazosin from human recombinant adrenergic alpha-1a receptor expressed in […] cells assessed as inhibition constant incubated for 60 mins by spectrophotometric analysis; type: cell-based
T1 sequence (P35348 whole entry): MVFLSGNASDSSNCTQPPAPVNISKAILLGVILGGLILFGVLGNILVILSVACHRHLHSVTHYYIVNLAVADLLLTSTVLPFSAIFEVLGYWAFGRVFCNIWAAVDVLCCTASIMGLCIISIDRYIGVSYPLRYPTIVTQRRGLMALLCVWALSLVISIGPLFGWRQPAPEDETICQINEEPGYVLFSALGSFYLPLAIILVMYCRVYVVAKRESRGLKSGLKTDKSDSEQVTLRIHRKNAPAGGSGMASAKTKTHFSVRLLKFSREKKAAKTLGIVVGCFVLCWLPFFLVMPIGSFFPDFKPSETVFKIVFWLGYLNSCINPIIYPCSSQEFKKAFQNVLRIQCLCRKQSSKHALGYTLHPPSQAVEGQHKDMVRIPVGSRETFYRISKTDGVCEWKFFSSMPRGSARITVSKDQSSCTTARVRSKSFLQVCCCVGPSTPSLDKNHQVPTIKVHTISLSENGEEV

[3] = molecular target: T2, Alpha-2A adrenergic receptor (Homo sapiens, UniProt P08913); test: Displacement of [3H]-rauwolscine from human recombinant adrenergic alpha-2A receptor expressed in CHO-K1 cells assessed as inhibition constant incubated for 60 mins by spectrophotometric analysis; type: cell-based
T2 sequence (P08913 whole entry): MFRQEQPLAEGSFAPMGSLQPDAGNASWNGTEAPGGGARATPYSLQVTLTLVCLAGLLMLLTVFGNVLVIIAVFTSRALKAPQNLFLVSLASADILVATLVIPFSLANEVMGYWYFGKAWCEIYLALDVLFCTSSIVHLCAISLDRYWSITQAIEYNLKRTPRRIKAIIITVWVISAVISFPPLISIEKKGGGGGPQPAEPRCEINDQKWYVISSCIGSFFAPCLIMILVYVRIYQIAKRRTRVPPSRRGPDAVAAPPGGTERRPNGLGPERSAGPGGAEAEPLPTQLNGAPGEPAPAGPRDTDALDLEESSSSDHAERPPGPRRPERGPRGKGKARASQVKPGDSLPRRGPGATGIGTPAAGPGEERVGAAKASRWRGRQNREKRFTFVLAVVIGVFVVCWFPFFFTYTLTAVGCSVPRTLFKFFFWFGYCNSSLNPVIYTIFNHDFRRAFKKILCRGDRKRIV

[4] = Metabolic stability in human hepatocytes assessed as intrinsic clearance measured per million cells incubated upto 60 mins by LC-MS/MS analysis; type: ADME, cell-based, Hepatocyte; settings: read-out: CLH
[5] = molecular target: T3, Alpha-1D adrenergic receptor (Homo sapiens, UniProt P25100); test: Displacement of [3H] prazosin from human recombinant adrenergic alpha-1d receptor expressed in HEK293 cells assessed as inhibition constant incubated for 60 mins by spectrophotometric analysis; type: cell-based
T3 sequence (P25100 whole entry): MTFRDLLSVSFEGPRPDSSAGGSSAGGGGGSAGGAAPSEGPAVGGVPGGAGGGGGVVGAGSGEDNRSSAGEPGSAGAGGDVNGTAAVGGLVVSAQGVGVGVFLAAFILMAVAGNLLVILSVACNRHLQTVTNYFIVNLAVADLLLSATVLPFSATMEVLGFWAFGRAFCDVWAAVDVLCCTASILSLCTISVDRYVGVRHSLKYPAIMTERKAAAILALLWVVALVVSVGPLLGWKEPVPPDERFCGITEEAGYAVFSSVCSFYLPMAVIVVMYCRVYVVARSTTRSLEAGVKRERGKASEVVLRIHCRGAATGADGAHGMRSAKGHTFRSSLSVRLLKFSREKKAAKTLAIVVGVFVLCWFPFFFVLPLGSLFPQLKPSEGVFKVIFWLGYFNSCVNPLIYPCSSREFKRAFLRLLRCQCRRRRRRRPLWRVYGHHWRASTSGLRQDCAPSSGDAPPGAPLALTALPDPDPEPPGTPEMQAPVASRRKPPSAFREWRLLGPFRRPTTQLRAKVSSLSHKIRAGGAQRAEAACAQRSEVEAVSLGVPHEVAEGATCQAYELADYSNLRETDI

MAO-A = MAO-A (Homo sapiens, UniProt P21397); test: Inhibition of human recombinant MAO-A expressed in insect cells assessed as inhibition of 4-hydroxyquinoline formation at 10 uM using kynuramine as substrate incubated for 75 mins by spectrophotometric analysis relative to control; parameters: species or system Insect cell; settings: probe kynuramine
Chain of MAO-A (P21397 whole entry): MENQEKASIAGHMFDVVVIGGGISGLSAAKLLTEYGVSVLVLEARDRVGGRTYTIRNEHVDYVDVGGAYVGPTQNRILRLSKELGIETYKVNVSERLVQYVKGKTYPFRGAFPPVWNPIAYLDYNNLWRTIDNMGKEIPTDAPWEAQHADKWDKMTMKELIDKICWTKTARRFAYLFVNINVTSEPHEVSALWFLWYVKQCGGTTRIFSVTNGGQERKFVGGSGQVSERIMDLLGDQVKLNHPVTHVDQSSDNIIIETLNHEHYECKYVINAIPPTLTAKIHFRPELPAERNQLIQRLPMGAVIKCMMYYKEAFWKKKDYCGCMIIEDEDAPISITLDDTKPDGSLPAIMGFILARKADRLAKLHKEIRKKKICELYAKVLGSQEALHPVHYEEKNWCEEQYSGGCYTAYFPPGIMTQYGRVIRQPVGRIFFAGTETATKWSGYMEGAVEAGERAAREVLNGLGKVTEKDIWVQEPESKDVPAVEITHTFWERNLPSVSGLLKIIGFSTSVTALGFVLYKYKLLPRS

[6] = Metabolic stability in human liver mitochondrial fraction assessed as mean intrinsic clearance measured per million cells incubated upto 60 mins by LC-MS/MS analysis; type: ADME, mitochondria, Mitochondria; settings: 1 h
[7] = Displacement of [3H] idazoxan from imidazoline receptor 2 (unknown origin) assessed as inhibition constant by spectrophotometric analysis; parameters: species or system Homo sapiens
[8] = molecular target: T4, 5-hydroxytryptamine receptor 5A (Homo sapiens, UniProt P47898); test: Displacement of [3H] LSD from human recombinant 5-HT5A receptor expressed in CHO-K1 cells incubated for 60 mins by spectrophotometric analysis; type: cell-based
T4 sequence (P47898 whole entry): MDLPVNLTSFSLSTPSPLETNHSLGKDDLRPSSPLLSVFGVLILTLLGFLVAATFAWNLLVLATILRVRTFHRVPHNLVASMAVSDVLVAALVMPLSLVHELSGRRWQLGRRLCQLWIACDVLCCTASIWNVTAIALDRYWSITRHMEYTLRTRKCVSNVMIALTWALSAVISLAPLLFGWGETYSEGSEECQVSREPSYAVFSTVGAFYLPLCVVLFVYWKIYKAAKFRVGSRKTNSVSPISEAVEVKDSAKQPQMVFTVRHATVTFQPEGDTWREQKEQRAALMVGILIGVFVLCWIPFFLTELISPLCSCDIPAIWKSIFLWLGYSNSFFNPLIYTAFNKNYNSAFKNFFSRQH

[9] = molecular target: T4, 5-hydroxytryptamine receptor 5A; test: Displacement of [3H] LSD from human recombinant 5-HT5A receptor expressed in CHO-K1 cells assessed as inhibition constant incubated for 60 mins by spectrophotometric analysis; type: cell-based
[10] = molecular target: 5-hydroxytryptamine receptor 1B (Homo sapiens, UniProt P28222); test: Displacement of [3H] GR125743 from human recombinant 5-HT1B receptor expressed in […] cells assessed as inhibition constant incubated for 90 mins by spectrophotometric analysis; type: cell-based
Chain of 5-hydroxytryptamine receptor 1B (P28222 whole entry): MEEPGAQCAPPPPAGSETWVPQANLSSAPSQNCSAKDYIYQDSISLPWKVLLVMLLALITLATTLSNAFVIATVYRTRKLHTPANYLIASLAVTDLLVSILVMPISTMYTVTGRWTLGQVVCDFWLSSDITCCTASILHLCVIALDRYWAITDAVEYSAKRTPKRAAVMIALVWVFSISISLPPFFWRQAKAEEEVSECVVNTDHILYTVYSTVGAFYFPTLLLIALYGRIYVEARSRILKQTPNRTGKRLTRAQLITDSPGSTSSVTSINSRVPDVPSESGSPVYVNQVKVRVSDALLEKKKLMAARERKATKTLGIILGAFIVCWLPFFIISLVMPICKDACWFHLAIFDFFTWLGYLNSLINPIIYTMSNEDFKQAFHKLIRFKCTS

[11] = molecular target: T5, 5-hydroxytryptamine receptor 6 (Homo sapiens, UniProt P50406); test: Displacement of [3H] LSD from human recombinant 5-HT6 receptor expressed in human HeLa cells incubated for 120 mins by spectrophotometric analysis; type: cell-based
T5 sequence (P50406 whole entry): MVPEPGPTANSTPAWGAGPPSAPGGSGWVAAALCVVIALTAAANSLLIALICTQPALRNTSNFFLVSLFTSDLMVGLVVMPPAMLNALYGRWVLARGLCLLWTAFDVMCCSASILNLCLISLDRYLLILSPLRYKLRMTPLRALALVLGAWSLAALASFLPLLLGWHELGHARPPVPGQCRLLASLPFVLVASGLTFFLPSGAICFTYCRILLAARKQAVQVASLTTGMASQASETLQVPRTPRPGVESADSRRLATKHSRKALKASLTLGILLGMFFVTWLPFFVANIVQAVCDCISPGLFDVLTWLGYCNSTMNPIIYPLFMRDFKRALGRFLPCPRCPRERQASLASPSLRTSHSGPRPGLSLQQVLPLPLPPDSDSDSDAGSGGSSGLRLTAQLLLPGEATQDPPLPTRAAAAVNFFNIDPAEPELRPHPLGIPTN

[12] = molecular target: 5-hydroxytryptamine receptor 7 (Homo sapiens, UniProt P34969); test: Displacement of [3H] LSD from human recombinant 5-HT7 receptor expressed in CHO-K1 cells incubated for 120 mins by spectrophotometric analysis; type: cell-based
Chain of 5-hydroxytryptamine receptor 7 (P34969 whole entry): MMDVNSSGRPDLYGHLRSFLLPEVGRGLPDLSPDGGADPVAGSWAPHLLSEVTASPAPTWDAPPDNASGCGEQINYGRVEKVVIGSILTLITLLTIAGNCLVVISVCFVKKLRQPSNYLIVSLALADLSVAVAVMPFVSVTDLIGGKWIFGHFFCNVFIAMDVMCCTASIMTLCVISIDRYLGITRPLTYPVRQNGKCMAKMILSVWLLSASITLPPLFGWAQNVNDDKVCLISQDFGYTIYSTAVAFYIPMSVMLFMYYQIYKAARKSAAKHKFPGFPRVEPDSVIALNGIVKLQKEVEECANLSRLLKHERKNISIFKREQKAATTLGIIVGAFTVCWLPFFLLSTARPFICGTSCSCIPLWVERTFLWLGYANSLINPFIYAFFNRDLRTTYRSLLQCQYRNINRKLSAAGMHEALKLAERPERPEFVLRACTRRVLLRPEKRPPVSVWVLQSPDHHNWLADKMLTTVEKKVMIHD

[13] = molecular target: T5, 5-hydroxytryptamine receptor 6; test: Displacement of [3H] LSD from human recombinant 5-HT6 receptor expressed in human HeLa cells assessed as inhibition constant incubated for 120 mins by spectrophotometric analysis; type: cell-based
[14] = molecular target: T2, Alpha-2A adrenergic receptor; test: Displacement of [3H]-rauwolscine from human recombinant adrenergic alpha-2A receptor expressed in CHO-K1 cells incubated for 60 mins by spectrophotometric analysis; type: cell-based
[15] = molecular target: T3, Alpha-1D adrenergic receptor; test: Displacement of [3H] prazosin from human recombinant adrenergic alpha-1d receptor expressed in HEK293 cells incubated for 60 mins by spectrophotometric analysis; type: cell-based
[16] = Metabolic stability in human hepatocytes assessed as half life measured per million cells incubated upto 60 mins by LC-MS/MS analysis; type: ADME, cell-based, Hepatocyte
[17] = Displacement of [3H] idazoxan from imidazoline receptor 2 (unknown origin) by spectrophotometric analysis; parameters: species or system Homo sapiens
[18] = molecular target: Amine oxidase [flavin-containing] A (Homo sapiens, UniProt P21397); test: Inhibition of human recombinant MAO-A expressed in insect cells assessed as inhibition of 4-hydroxyquinoline formation using kynuramine as substrate incubated for 75 mins by spectrophotometric analysis; parameters: species or system Insect cell
Chain of Amine oxidase [flavin-containing] A (P21397 whole entry): as the sequence (P21397 whole entry) above

[19] = molecular target: T1, Alpha-1A adrenergic receptor; test: Displacement of [3H] prazosin from human recombinant adrenergic alpha-1a receptor expressed in […] cells incubated for 60 mins by spectrophotometric analysis; type: cell-based

Compound | half-life [1] | Ki [2] | Ki [3] | hepatocyte CLint [4] | Ki [5] | inhibition at 1.25 h, 10 µM (MAO-A) | CLH [6] | Ki [7] | IC50 [8] | Ki [9] | Ki [10] | IC50 [11] | IC50 [12] | Ki [13] | IC50 [14] | IC50 [15] | half-life [16] | IC50 [17] | IC50 [18] | IC50 [19]
O=C(O)/C=C/C(=O)O.[2H]C([2H])(Cc1c[nH]c2ccccc12)N(C)C | 1.42 h | 480 nM | 1520 nM | 7.3 µL/min/1e6 cells | 1600 nM | 84.3% | 16.5 µL/min | 1730 nM | 3320 nM | 1710 nM | 1520 nM | 1080 nM | 90 nM | 500 nM | 3030 nM | 3260 nM | 3.72 h | 2600 nM | 1500 nM | 990 nM
CN(C)CCc1c[nH]c2ccccc12.O=C(O)/C=C/C(=O)O | 0.138 h | 280 nM | 1110 nM | 16.6 µL/min/1e6 cells | 1510 nM | 85.3% | 168 µL/min | 1290 nM | 3320 nM | 1710 nM | 1840 nM | 1210 nM | 120 nM | 560 nM | 2220 nM | 3070 nM | 3.17 h | 1930 nM | 1180 nM | 580 nM
